Measured values as given in PMC6152180, “Design, Synthesis and Evaluation of Hesperetin Derivatives as Potential Multifunctional Anti-Alzheimer Agents” (Molecules : A Journal of Synthetic Chemistry and Natural …, 2017).

Experiments:
AChE = molecular target: T1, AChE (Electrophorus electricus, UniProt O42275); assay: biochemical; conditions: for IC50: AChE from electric eel, means ± SEM of three experiments, read-out: AchE Inhibition, (IC50); for Selective Index: Selectivity Index = IC50 (BuChE)/IC50 (AChE)
T1 construct: purchased Sigma-Aldrich C3389-2KU
T1 sequence (O42275 24-633): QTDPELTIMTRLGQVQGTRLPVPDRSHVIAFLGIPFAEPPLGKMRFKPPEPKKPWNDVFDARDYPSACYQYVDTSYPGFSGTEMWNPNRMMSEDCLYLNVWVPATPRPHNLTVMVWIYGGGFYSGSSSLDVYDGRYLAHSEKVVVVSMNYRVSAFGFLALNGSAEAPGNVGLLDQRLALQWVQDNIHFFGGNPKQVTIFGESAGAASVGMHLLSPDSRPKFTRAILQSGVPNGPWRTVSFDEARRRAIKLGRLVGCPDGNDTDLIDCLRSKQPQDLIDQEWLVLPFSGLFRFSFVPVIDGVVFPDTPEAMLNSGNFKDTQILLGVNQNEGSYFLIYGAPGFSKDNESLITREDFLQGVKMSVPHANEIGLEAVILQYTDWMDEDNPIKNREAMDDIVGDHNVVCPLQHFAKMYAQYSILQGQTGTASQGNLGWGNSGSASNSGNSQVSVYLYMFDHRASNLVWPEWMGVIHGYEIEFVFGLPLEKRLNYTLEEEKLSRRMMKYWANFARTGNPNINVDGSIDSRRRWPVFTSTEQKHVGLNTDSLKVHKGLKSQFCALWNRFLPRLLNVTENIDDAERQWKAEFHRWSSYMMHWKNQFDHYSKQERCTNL
Description: (§1) Acetylcholinesterase (AChE, E.C. 3.1.1.7, obtained from electric eel) was purchased from Sigma-Aldrich (St. Louis, MO, USA, product code: C3389-2KU). Butyrylcholinesterase (BuChE, E.C. 3.1.1.8, obtained from equine serum) was purchased from Aladdin (Shanghai, China, product code: B128570-2KU). […] The compounds were dissolved in a minimum volume of DMSO (1%) and then diluted in 0.1 M KH2PO4/K2HPO4 buffer (pH 8.0) to provide a final concentration range.
(§2) Enzyme solutions were prepared to give 2.0 units/ mL in 2 mL aliquots. The assay medium contained phosphate buffer, pH 8.0 (1 mL), 50 μL of 0.01 M DTNB, 10 μL of enzyme, and 50 μL of 0.01 M substrate (ATC). The substrate was added to the assay medium containing enzyme, buffer, and DTNB with inhibitor after 15 min of incubation time. […] In vitro BuChE assay used the similar method described above [31]. Each concentration was assayed in triplicate.

Aβ (1–42) = Aβ (1–42) (Homo sapiens, UniProt P05067); assay: Inhibition of self-mediated Aβ (1–42) aggregation (thioflavin T fluorescence assay); conditions: read-out: Aβ (1–42) aggregation inhibition rate
Sequence of Aβ (1–42) (P05067 672-713): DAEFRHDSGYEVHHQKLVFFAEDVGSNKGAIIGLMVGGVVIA
Description: A thioflavin T based fluorometric assay was performed to investigate the self-mediated Aβ (1–42) aggregation [33]. Aβ (1–42) peptide (Sigma-Aldrich) was dissolved in phosphate buffer (0.01 M, pH 7.40) to obtain a 20 μM solution. Compounds were firstly dissolved in DMSO to obtain a 10 mM solution. Inhibitors and the final concentration of Aβ (1–42) were 20 μM. After incubated in 37 °C for 48 h, thioflavin-T (5 μM in 50 mM glycine-NaOH buffer, pH 8.00) was added. […] Each inhibitor was run in triplicate. The fluorescence intensities were recorded, and the percent inhibition on aggregation was calculated by the following expression: (1 − IFi/IFc) × 100% in which IFi and IFc were the fluorescence intensities obtained for absorbance in the presence and absence of inhibitors, respectively, after subtracting the fluorescence of respective blanks.

BuChE = molecular target: T2, BuChE (Equus caballus, UniProt P81908); assay: biochemical; conditions: BuChE from equine serum; means ± SEM of three experiments; read-out: BuChE Inhibition, (IC50)
T2 construct: purchased Aladdin B128570-2KU; host or cells: equine serum
T2 sequence (P81908 whole entry): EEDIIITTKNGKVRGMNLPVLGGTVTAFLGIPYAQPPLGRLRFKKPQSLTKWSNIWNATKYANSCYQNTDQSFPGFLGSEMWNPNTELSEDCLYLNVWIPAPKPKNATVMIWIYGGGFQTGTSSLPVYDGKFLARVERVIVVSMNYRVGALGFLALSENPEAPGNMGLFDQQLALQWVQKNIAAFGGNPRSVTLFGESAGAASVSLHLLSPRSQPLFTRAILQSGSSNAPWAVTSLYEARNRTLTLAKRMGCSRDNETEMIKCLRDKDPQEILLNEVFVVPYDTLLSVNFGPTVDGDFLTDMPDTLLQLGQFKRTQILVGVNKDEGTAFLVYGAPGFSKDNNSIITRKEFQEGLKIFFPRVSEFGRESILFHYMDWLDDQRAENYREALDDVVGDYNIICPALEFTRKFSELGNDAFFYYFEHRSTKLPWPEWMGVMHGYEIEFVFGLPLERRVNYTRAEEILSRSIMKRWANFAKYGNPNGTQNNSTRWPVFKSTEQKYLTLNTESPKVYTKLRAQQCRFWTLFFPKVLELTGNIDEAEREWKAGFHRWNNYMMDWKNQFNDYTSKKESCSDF
Description: as §1, §2

in vitro = conditions: human
Description: Thus, we used the methylthiazolyl tetrazolium (MTT) method [30] to perform a neurocyte (SH-SY5Y) toxicity test in vitro.
The SH-SY5Y cell line was seeded on 96-well plates at a density of 10^4 cells/well. […] Subsequently, 10 μL of 5 mg/mL MTT solution was added to each well and further incubated for 4 h at 37 °C. The solution was carefully removed, and each well was treated with DMSO (200 μL for each well). The optical density of the wells was then read on the microplate reader at 570 nm. All the tested compounds were performed in triplicate.

[1] = Oxygen radical absorbance capacity-fluorescein (ORAC-FL) assay; conditions: Trolox equivalents, Trolox = 1
Description: Vitamin E analogue Trolox was used as the standard, and the results were expressed as Trolox equivalents.
The anti-oxidation activity was tested by using the oxygen radical absorbance capacity-fluorescein (ORAC-FL) assay [25, 32]. All the ORAC-assays measure antioxidant scavenging activity against peroxyl radical induced by 2,2′-azobis (2-amidinopropane) dihydrochloride (AAPH) at 37 °C.
The reaction was conducted with 75 mM phosphate buffer (pH 7.4) and the final reaction mixture was 200 μL. Fluorescein (120 μL, 300 nM final concentration) and antioxidant (20 μL) were placed in the wells of a black 96-well plate, and the mixture was incubated for 15 min at 37 °C. Then AAPH solution (60 μL, 12 mM final concentration) was added rapidly. […] 6-hydroxy-2,5,7,8-tetramethylchroman-2-carboxylic acid (Trolox) was used as a standard (1–5 μM, final concentration). A blank (FL + AAPH) using phosphate buffer instead of antioxidant and Trolox calibration were carried out in each assay. The samples were measured at different concentrations (1–5 μM), and at least three independent assays were performed for each sample. Fluorescence measurements were normalized based on the curve of the blank (without antioxidant). Antioxidant curves (fluorescence versus time) were normalized to the curve of the blank in the same assay, and then the area under the fluorescence decay curve (AUC) was calculated. The net AUC of a sample was obtained by subtracting the AUC from the blank. ORAC-FL values were expressed as Trolox equivalents by using the standard curve calculated for each sample, where the ORAC-FL value of Trolox was taken as one, indicating the antioxidant potency of the test compounds.

COc1ccc(C2CC(=O)c3c(O)cc(OCC(=O)NCc4ccccc4)cc3O2)cc1O (stereo not shown) [Compound 4a, N-Benzyl-2-[5-hydroxy-2-(3-hydroxy-4-methoxyphenyl)-4-oxochroman-7-yloxy]-acetamide]
IC50 (AChE): 25.5 ± 1.32 nM | Selective Index (AChE): 133 | inhibition at 20 µM (Aβ (1–42)): 73.2% | IC50 (BuChE): 3400 ± 56 nM | viability at 48 h, 1 µM (in vitro): 98.2 ± 8.02% | viability at 48 h, 10 µM (in vitro): 91.6 ± 5.67% | viability at 48 h, 50 µM (in vitro): 81.4 ± 5.23% | viability at 48 h, 100 µM (in vitro): 63.2 ± 4.23%

COc1ccc(C2CC(=O)c3c(O)cc(OCC(=O)NCc4ccncc4)cc3O2)cc1O (stereo not shown) [Compound 4s, 2-[5-Hydroxy-2-(3-hydroxy-4-methoxyphenyl)-4-oxochroman-7-yloxy]-N-pyridin-4-ylmethylacetamide]
IC50 (AChE): 27.3 ± 0.99 nM | Selective Index (AChE): 68 | inhibition at 20 µM (Aβ (1–42)): 72% | ORAC [1]: 2.4 μM of Trolox equivalent/μMof tested compound | IC50 (BuChE): 1850 ± 55 nM | viability at 48 h, 1 µM (in vitro): 101 ± 6.17% | viability at 48 h, 10 µM (in vitro): 97.5 ± 5.36% | viability at 48 h, 50 µM (in vitro): 78.7 ± 3.46% | viability at 48 h, 100 µM (in vitro): 59.6 ± 3.61%

COc1ccc(C2CC(=O)c3c(O)cc(OCC(=O)NCc4ccco4)cc3O2)cc1O (stereo not shown) [Compound 4t, N-Furan-2-ylmethyl-2-[5-hydroxy-2-(3-hydroxy-4-methoxyphenyl)-4-oxochroman-7-yloxy]acetamide]
IC50 (AChE): 30.6 ± 4.5 nM | Selective Index (AChE): 77 | inhibition at 20 µM (Aβ (1–42)): 70.8% | ORAC [1]: 2.6 μM of Trolox equivalent/μMof tested compound | IC50 (BuChE): 2350 ± 104 nM | viability at 48 h, 1 µM (in vitro): 99.9 ± 4.52% | viability at 48 h, 10 µM (in vitro): 97.5 ± 3.65% | viability at 48 h, 50 µM (in vitro): 81.8 ± 4.06% | viability at 48 h, 100 µM (in vitro): 61.2 ± 5.12%

COc1ccc(C2CC(=O)c3c(O)cc(OCC(=O)NCCc4cccc(Cl)c4)cc3O2)cc1O (stereo not shown) [Compound 4r, N-[2-(3-Chlorophenyl)ethyl]-2-[5-hydroxy-2-(3-hydroxy-4-methoxyphenyl)-4-oxo-chroman-7-yloxy]acetamide]
IC50 (AChE): 16.1 ± 0.79 nM | Selective Index (AChE): 188 | ORAC [1]: 2.8 μM of Trolox equivalent/μMof tested compound | IC50 (BuChE): 3030 ± 84 nM | viability at 48 h, 1 µM (in vitro): 98.9 ± 5.2% | viability at 48 h, 10 µM (in vitro): 95.8 ± 6.29% | viability at 48 h, 50 µM (in vitro): 83.8 ± 4.24% | viability at 48 h, 100 µM (in vitro): 62.2 ± 4.18%

COc1ccc(C2CC(=O)c3c(O)cc(OCC(=O)NCCc4ccccc4)cc3O2)cc1O (stereo not shown) [Compound 4k, 2-[5-Hydroxy-2-(3-hydroxy-4-methoxyphenyl)-4-oxochroman-7-yloxy]-N-phenethyl-acetamide]
IC50 (AChE): 11.9 ± 1.12 nM | Selective Index (AChE): 254 | ORAC [1]: 2.7 μM of Trolox equivalent/μMof tested compound | IC50 (BuChE): 3010 ± 74 nM | viability at 48 h, 1 µM (in vitro): 98.9 ± 6.3% | viability at 48 h, 10 µM (in vitro): 96.5 ± 2.98% | viability at 48 h, 50 µM (in vitro): 81 ± 3.22% | viability at 48 h, 100 µM (in vitro): 68.5 ± 4.92%

COc1ccc(C2CC(=O)c3c(O)cc(OCC(=O)NCCc4ccc(Cl)cc4)cc3O2)cc1O (stereo not shown) [Compound 4m, N-[2-(4-Chlorophenyl)ethyl]-2-[5-hydroxy-2-(3-hydroxy-4-methoxyphenyl)-4-oxo-chroman-7-yloxy]acetamide]
IC50 (AChE): 15.7 ± 0.85 nM | Selective Index (AChE): 214 | ORAC [1]: 2.6 μM of Trolox equivalent/μMof tested compound | IC50 (BuChE): 3350 ± 66 nM | viability at 48 h, 1 µM (in vitro): 102 ± 6.65% | viability at 48 h, 10 µM (in vitro): 97.3 ± 5.21% | viability at 48 h, 50 µM (in vitro): 81.5 ± 4.01% | viability at 48 h, 100 µM (in vitro): 64.5 ± 4.32%

COc1ccc(C2CC(=O)c3c(O)cc(OCC(=O)NCc4ccc(F)cc4)cc3O2)cc1O (stereo not shown) [Compound 4c, N-(4-Fluorobenzyl)-2-[5-hydroxy-2-(3-hydroxy-4-methoxyphenyl)-4-oxochroman-7-yloxy]-acetamide]
IC50 (AChE): 12.4 ± 0.81 nM | Selective Index (AChE): 167 | ORAC [1]: 2.9 μM of Trolox equivalent/μMof tested compound | IC50 (BuChE): 2080 ± 76 nM | viability at 48 h, 1 µM (in vitro): 98.5 ± 4.98% | viability at 48 h, 10 µM (in vitro): 97.5 ± 3.76% | viability at 48 h, 50 µM (in vitro): 83.8 ± 2.32% | viability at 48 h, 100 µM (in vitro): 58.8 ± 3.97%
